The values below come from article PMC6509195 (mBio, 2019).

The target in series [1] is T1, CsiD (PP_2909) (Pseudomonas putida, UniProt Q88IU0).
T1 construct: gene glaH
T1 sequence (Q88IU0 1-325): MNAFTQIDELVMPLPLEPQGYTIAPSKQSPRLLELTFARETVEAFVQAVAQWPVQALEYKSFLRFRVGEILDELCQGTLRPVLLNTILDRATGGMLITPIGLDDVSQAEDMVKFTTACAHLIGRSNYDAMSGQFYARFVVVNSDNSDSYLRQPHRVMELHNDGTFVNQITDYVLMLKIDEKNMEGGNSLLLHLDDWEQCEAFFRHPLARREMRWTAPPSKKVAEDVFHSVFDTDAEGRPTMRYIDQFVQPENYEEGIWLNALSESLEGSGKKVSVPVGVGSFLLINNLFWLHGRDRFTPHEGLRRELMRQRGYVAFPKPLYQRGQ
The series is described as follows: LC-TOF detection of L-2HG. It is filed as biochemical. The settings on record: 2-oxoacid co-substrate in place of 2KG; glutarate, FeSO4, HEPES pH 7, 22°C.

The target of series [2] is T2, CsiD homolog from E. coli (Escherichia coli, UniProt P76621).
T2 construct: gene glaH
T2 sequence (P76621 1-325): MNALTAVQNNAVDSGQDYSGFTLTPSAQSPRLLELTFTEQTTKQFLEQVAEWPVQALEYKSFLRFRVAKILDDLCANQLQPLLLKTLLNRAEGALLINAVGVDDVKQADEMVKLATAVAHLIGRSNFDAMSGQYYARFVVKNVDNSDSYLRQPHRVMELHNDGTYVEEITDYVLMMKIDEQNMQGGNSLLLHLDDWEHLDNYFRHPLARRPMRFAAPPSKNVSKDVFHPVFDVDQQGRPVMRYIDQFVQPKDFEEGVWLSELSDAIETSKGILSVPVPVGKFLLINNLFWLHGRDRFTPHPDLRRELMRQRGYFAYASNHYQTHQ
The series is described as follows: LC-TOF detection of L-2HG. In kind it is biochemical. The settings on record: 2-oxoacid co-substrate in place of 2KG; glutarate, FeSO4, HEPES pH 7, 22°C.

In another series the target is T3, PP_4108 (Pseudomonas putida, UniProt Q88FI7).
T3 sequence (Q88FI7 1-416): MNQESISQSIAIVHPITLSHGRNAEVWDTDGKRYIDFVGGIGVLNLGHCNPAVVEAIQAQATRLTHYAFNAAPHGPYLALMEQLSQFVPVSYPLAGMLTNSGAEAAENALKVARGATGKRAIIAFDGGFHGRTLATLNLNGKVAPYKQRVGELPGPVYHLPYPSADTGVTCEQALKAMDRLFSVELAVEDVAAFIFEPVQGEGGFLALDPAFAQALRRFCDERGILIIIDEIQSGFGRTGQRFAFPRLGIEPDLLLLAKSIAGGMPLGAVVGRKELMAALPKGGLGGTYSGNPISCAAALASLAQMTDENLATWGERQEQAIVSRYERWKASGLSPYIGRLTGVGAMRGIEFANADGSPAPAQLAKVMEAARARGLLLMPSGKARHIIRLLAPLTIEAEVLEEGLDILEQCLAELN
The experiment in a line: colorimetric glutamate assay of transamination. In kind it is biochemical. The settings on record: 2KG as amino acceptor, PLP, 50 mM HEPES pH 7.5, 30°C, 16 h.

Series [3] deals with T1, CsiD (PP_2909). The series is described as follows: LC-TOF / HPLC product analysis. In kind it is biochemical. The settings on record: 2KG co-substrate, 25 μM FeSO4, ascorbate, DTT, 50 mM HEPES pH 7, 22°C, 3 h.
The target of series [4] is T2, CsiD homolog from E. coli. The experiment in a line: LC-TOF product analysis. It is filed as biochemical. The settings on record: 2KG co-substrate, FeSO4, HEPES pH 7, 22°C.
Substrate in the series “purified protein”: O=C(O)CCCC(=O)C(=O)O
The experiment in a line: purified protein. The settings on record: 100 mM Tris-HCl pH 7, 10 mM MgCl2, 50 μM FeCl2, Fe(II)-dependent. It is filed as biochemical, Pseudomonas putida.

`O=C(O)CCCC(=O)C(=O)O` [2-oxoadipate]: the “LC-TOF detection of L-2HG” value on CsiD (PP_2909) [1] is “all three CsiD homologs could utilize both 2OA and 2KG, but not oxaloacetate”; in series [2], “all three CsiD homologs could utilize both 2OA and 2KG, but not oxaloacetate”.
`N[C@@H](CCCC(=O)O)C(=O)O` [L-2-aminoadipate]: at PP_4108, the relative activity result was “The enzyme was most active on L-2AA”.
As for `O=C(O)CCCC(=O)O` [glutarate], the “LC-TOF / HPLC product analysis” value at CsiD (PP_2909) [3] was “purified csiD and confirmed that it hydroxylated glutarate in a 2KG-dependent manner”. In addition, the LC-TOF product analysis entry in series [4] is “found that only glutarate served as a hydroxylation substrate”.

B1: PP_5260 (Pseudomonas putida KT2440) (protein)
chain: MPANDFVSPDSIRAQFSAAMSLMYKQEVPLYGTLLELVSEINQQVMAQQPEVAEALRWTGEIERLDQERHGAIRVGTAEELATIARLFAVMGMQPVGYYDLSSAGVPVHSTAFRAVHEQSLHVSPFRVFTSLLRLELIDNPQLRELAQSILAKRQIFTSRALELIAQCEREGGLDAADAETFVQEALHTFRWHQDATVTAEQYQQLHDQHRLIADVVAFKGPHINHLTPRTLDIDAIQLGMPAKGIPPKAVVEGPPTRRHPILLRQTSFKALQETVAFRDQQGREGSHTARFGEIEQRGAALTPKGRQLYDKLLDATRVALGGAPAEANAERYMALLQANFAEFPDDLAQMREQGLAYFRYFATEKGLAARDQEGRPTTLQGLIDAGHVHFEALVYEDFLPVSAAGIFQSNLGDDAQAEYGSNANREAFEAALGLQVQDELALYAQSERRSLQACAQALNLGSM
Consider B1, for which the Km in the series “purified protein” is listed as 0.06 (± 0.03) mM.
